From the supplement of paper PMC10307832

How the values were obtained:
Experiment in all cases: relative viability (nuclei count vs DMSO), 5 days (fraction); higher = more cells survive
Bexarotene + OSI-027 = compound: C=C(c1ccc(C(=O)O)cc1)c1cc2c(cc1C)C(C)(C)CCC2(C)C [Bexarotene] + COc1cccc2cc(-c3nc([C@H]4CC[C@H](C(=O)O)CC4)n4ncnc(N)c34)[nH]c12 [OSI-027] (partner 0.5 µM)
Method in brief: (§1)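 Relative viability equals treated-well nuclei counts divided by vehicle-well nuclei counts. Counts came from 4× images of lung cancer cell lines grown in 1536-well plates for 5 days after pin-tool dosing on the day after seeding. Dosing used one drug alone or a fixed anchor-drug dose plus five library-drug doses (not always all listed) in √10 steps, and values are medians of duplicate plates.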

Bexarotene + AZD7762 = compound: C=C(c1ccc(C(=O)O)cc1)c1cc2c(cc1C)C(C)(C)CCC2(C)C [Bexarotene] + NC(=O)Nc1cc(-c2cccc(F)c2)sc1C(=O)N[C@H]1CCCNC1 [AZD7762] (partner 0.2 µM)
Method in brief: as §1

Bexarotene + Foretinib = compound: C=C(c1ccc(C(=O)O)cc1)c1cc2c(cc1C)C(C)(C)CCC2(C)C [Bexarotene] + COc1cc2c(Oc3ccc(NC(=O)C4(C(=O)Nc5ccc(F)cc5)CC4)cc3F)ccnc2cc1OCCCN1CCOCC1 [Foretinib] (partner 0.25 µM)
Method in brief: as §1

Bexarotene + Pemetrexed = compound: C=C(c1ccc(C(=O)O)cc1)c1cc2c(cc1C)C(C)(C)CCC2(C)C [Bexarotene] + Nc1nc2[nH]cc(CCc3ccc(C(=O)N[C@@H](CCC(=O)O)C(=O)O)cc3)c2c(=O)[nH]1 [Pemetrexed] (partner 0.2 µM)
Method in brief: as §1

| Cell Line | relative viability (Bexarotene + OSI-027; first compound 0.08 µM) | relative viability (Bexarotene + OSI-027; first compound 0.253 µM) | relative viability (Bexarotene + OSI-027; first compound 0.8 µM) | relative viability (Bexarotene + OSI-027; first compound 2.53 µM) | relative viability (Bexarotene + OSI-027; first compound 8 µM) | relative viability (Bexarotene + AZD7762; first compound 0.08 µM) | relative viability (Bexarotene + AZD7762; first compound 0.253 µM) | relative viability (Bexarotene + AZD7762; first compound 0.8 µM) | relative viability (Bexarotene + AZD7762; first compound 2.53 µM) | relative viability (Bexarotene + AZD7762; first compound 8 µM) | relative viability (Bexarotene + Foretinib; first compound 0.08 µM) | relative viability (Bexarotene + Foretinib; first compound 0.253 µM) | relative viability (Bexarotene + Foretinib; first compound 0.8 µM) | relative viability (Bexarotene + Foretinib; first compound 2.53 µM) | relative viability (Bexarotene + Foretinib; first compound 8 µM) | relative viability (Bexarotene + Pemetrexed; first compound 0.08 µM) | relative viability (Bexarotene + Pemetrexed; first compound 0.253 µM) | relative viability (Bexarotene + Pemetrexed; first compound 0.8 µM) | relative viability (Bexarotene + Pemetrexed; first compound 2.53 µM) | relative viability (Bexarotene + Pemetrexed; first compound 8 µM) |
| --- | --- | --- | --- | --- | --- | --- | --- | --- | --- | --- | --- | --- | --- | --- | --- | --- | --- | --- | --- | --- |
| NCI-H441 | 0.763 | 0.67 | 0.645 | 0.585 | 0.672 | 1.5 | 1.28 | 1.24 | 1.1 | 1.01 | 1.01 | 1.04 | 1.13 | 0.841 | 0.927 | 0.268 | 0.319 | 0.26 | 0.257 | 0.249 |
| NCI-H650 | 0.516 | 0.521 | 0.523 | 0.485 | 0.494 | 1.13 | 0.986 | 1.17 | 0.709 | 1.05 | 0.974 | 0.995 | 0.958 | 0.991 | 0.996 | 1.09 | 0.887 | 0.882 | 0.832 | 0.918 |
| NCI-H1355 | 0.41 | 0.426 | 0.37 | 0.387 | 0.462 | 0.868 | 0.841 | 0.671 | 0.9 | 0.682 | 1 | 1.09 | 0.91 | 1.05 | 0.947 | 1.14 | 1.15 | 0.983 | 1.13 | 1.01 |
| NCI-H2347 | 0.353 | 0.275 | – | 0.446 | 0.386 | 0.794 | 0.86 | 0.688 | 0.691 | 0.754 | 0.878 | 0.783 | 0.703 | 0.882 | 1.09 | 0.484 | 0.424 | 0.399 | 0.445 | 0.462 |
| LCLC-97TM1 | 0.427 | 0.54 | 0.598 | 0.561 | 0.515 | 0.252 | 0.35 | 0.398 | 0.263 | 0.237 | 0.891 | 1 | 0.887 | 0.933 | 0.969 | 0.193 | 0.159 | 0.172 | 0.202 | 0.168 |
| EMC-BAC-2 | 0.416 | 0.42 | 0.385 | 0.367 | 0.419 | 1.17 | 1.09 | 1.06 | – | 1.08 | 0.912 | 1.09 | 0.998 | 0.964 | 0.993 | 0.44 | 0.441 | 0.394 | – | 0.419 |
| NCI-H1975 | 0.9 | 0.811 | 0.802 | 0.806 | 0.722 | 0.676 | 0.775 | 0.672 | 0.666 | 0.668 | 1.11 | 0.983 | 1.12 | 1.04 | 1.05 | 0.327 | 0.331 | 0.305 | 0.334 | 0.323 |
| BEN | 0.294 | 0.309 | 0.292 | 0.266 | 0.254 | 0.759 | 0.585 | 0.613 | 0.612 | 0.695 | 0.802 | 0.387 | 0.567 | 0.318 | 0.674 | 0.883 | 0.629 | 0.784 | 0.637 | 0.725 |
| NCI-H23 | 0.607 | 0.597 | 0.6 | 0.55 | 0.461 | 0.297 | 0.239 | 0.231 | 0.261 | 0.196 | 0.888 | 1.06 | 0.921 | 1.01 | 0.785 | 0.948 | 0.715 | 0.669 | 0.626 | 0.686 |
| CAL-12T | 0.523 | 0.416 | 0.49 | 0.439 | 0.441 | 0.649 | 0.549 | 0.603 | 0.427 | 0.513 | 1.31 | 1.1 | 1.19 | 1.03 | 0.977 | 1.15 | 1.19 | 1.21 | 1.13 | 1.06 |
| EPLC-272H | 0.292 | 0.277 | 0.26 | 0.283 | 0.272 | 0.199 | 0.259 | 0.517 | 0.208 | 0.271 | 0.666 | 0.555 | 0.75 | 0.588 | 0.737 | 0.27 | 0.346 | 0.218 | 0.395 | 0.325 |
| LCLC-103H | 0.522 | 0.434 | 0.354 | 0.461 | 0.448 | 0.807 | 0.78 | 0.64 | 0.796 | 0.842 | 0.753 | 0.665 | 0.695 | 0.814 | 0.677 | 0.462 | 0.453 | 0.462 | 0.436 | 0.472 |
| NCI-H2405 | 0.675 | 0.674 | 0.512 | 0.708 | 0.65 | 0.887 | 0.681 | 0.711 | 0.761 | 0.801 | 1.17 | 1.05 | 0.758 | 1.05 | 1.02 | 1.25 | 1.09 | 0.939 | 0.977 | 1.07 |
| HCC-15 | 0.792 | 0.806 | 0.631 | 0.621 | 0.632 | 1.23 | 1.17 | 1.27 | 1.1 | 1.44 | 1.09 | 1.07 | 1.05 | 1.05 | 0.996 | 0.218 | 0.229 | 0.214 | 0.184 | 0.207 |
| PC-3 [JPC-3] | 0.816 | 0.798 | 0.604 | 0.733 | 0.676 | 0.958 | 0.705 | 0.785 | 0.651 | 0.709 | 1.13 | 0.949 | 0.941 | 0.99 | 0.891 | 1.07 | 1.05 | 1.05 | 0.541 | 1 |
| NCI-H1944 | 0.616 | 0.495 | 0.48 | 0.476 | 0.451 | 0.738 | 0.733 | 0.749 | 0.694 | 0.739 | 1.25 | 1.09 | 1.04 | 1.16 | 0.965 | 0.822 | 0.758 | 0.857 | 0.724 | 0.75 |
